Columns and labels:
GLUT4 = GLUT4 translocation in L6 myotubes after siRNA knockdown of AMPKα, JAK2 or JAK3; format: cell-based, rat; settings: 1 nM quercetin or isorhamnetin
Method: (§1) For in vitro cell culture experiments, after serum starvation for 18 h, myotubes were treated with various concentrations of quercetin or isorhamnetin (0.1–10 nM) for 15 min; DMSO (final 0.1%) was used as a vehicle control. As positive controls, 100 nM insulin, 1 mM AICAR, 10 nM leptin, or 100 ng/mL IL-15 were used for insulin, AMPK, JAK2/STAT, or JAK3/STAT signalling pathways, respectively. Cells were treated with insulin or AICAR for 15 min, leptin for 60 min, or IL-15 for 24 h. Whole protein and plasma membrane fractions were prepared from myotubes, as previously described. For in vivo experiment, plasma membrane fraction and tissue lysate of soleus muscle were prepared.
(§2) Translocation of GLUT4 to the plasma membrane, as well as expression and phosphorylation levels of GLUT4-related regulators were estimated by western blot analysis. Briefly, equal amounts of proteins were separated by sodium dodecyl sulfate-polyacrylamide gel electrophoresis (SDS-PAGE). Separated proteins were transferred onto a polyvinylidene fluoride membrane and nonspecific binding sites were blocked using either Blocking One (to detect unphosphorylated proteins) or Blocking One-P (to detect phosphoproteins). The membrane was incubated overnight with an appropriate primary antibody for GLUT4 (1:5000), IR (1:10000), p-IRS1 (1:5000), IRS1 (1:5000), p-PI3K (1:5000), PI3K (1:10000), p-Akt (1:5000), Akt (1:10000), p-AMPKα (1:5000), AMPKα (1:10000), p-ACC (1:5000), ACC (1:10000), p-LKB1 (1:5000), LKB1 (1:10000), p-JAK2 (1:5000), JAK2 (1:5000), p-JAK3 (1:5000), JAK3 (1:10000), p-STAT1 (1:5000), STAT1 (1:10000), p-STAT3 (1:5000), STAT3 (1:10000), p-STAT5 (1:5000), STAT5 (1:10000), or β-actin (1:20000), and subsequently treated with the corresponding horseradish peroxidase-conjugated secondary antibody (1:50000) for 1 h. Specific immune complexes were developed using ImmunoStar® LD and detected with an ATTO Light-Capture II Western Blotting Detection System. Individual band density was calculated by ImageJ and normalized to the control.
Mature myotubes were cultured in antibiotic-free medium and transfected with siRNA at a final concentration of 50 nM using Lipofectamine RNAiMAX transfection reagent according to the manufacturer’s instructions. In brief, mature myotubes were transfected with siRNA in Opti-MEM for 48 h. Subsequently, the medium was changed to fresh Opti-MEM and cells were treated with the indicated concentrations of quercetin or isorhamnetin.

AMPK = assay: Phosphorylation of AMPK in L6 myotubes (western blot); format: cell-based, rat
Method: In vitro cultured cell experiments were conducted according to a previously described protocol[6],[14]. Briefly, L6 myoblasts derived from rat skeletal muscle and of less than 40 passages were maintained in MEM supplemented with 10% foetal bovine serum (FBS) and antibiotics (100 U/ml penicillin and 100 μg/ml streptomycin) at 37 °C under a humidified atmosphere condition of 5% CO2 and 95% air. In each experiment, cells (2.2 × 10^4 cells/ml) were seeded into 96-well plates or 60-mm dishes for induction of differentiation into mature myotubes. After reaching confluence, cells were supplemented with differentiation medium containing 2% FBS and the same antibiotics for 7 days. Cells were used for each experiment after morphological analysis of differentiation status using phase-contrast microscopy. To explore the contribution of CaMKKβ or intracellular-free calcium ions in quercetin- and isorhamnetin-stimulated GLUT4 translocation, L6 cells were incubated in the presence or absence of 10 μM STO-609 and 25 μM […], respectively, for 30 min prior to treatment with either quercetin or isorhamnetin.
as §1, §2
42 after morphological analysis of differentiation status using phase-contrast microscopy.
43 Preparation of whole protein and plasma membrane fractions After serum starvation
44 for 18 h, myotubes were treated with various concentrations of quercetin or isorhamnetin (1–
45 10 μM) for 15 min; DMSO (final 0.1%) was used as a vehicle control. As positive controls, […]

NC(=O)c1ncn([C@@H]2O[C@H](CO)[C@@H](O)[C@H]2O)c1N [AICAR, 5-aminoimidazole-4-carboxyamide ribonucleoside, reference compound]
compound-induced GLUT4 translocation after siRNA for AMPK (GLUT4; siAMPKα 50 nM 48 h, 1 mM AICAR): almost completely abolished

CC(=O)OCOC(=O)CN(CC(=O)OCOC(C)=O)c1ccccc1OCCOc1ccccc1N(CC(=O)OCOC(C)=O)CC(=O)OCOC(C)=O [BAPTA-AM, 1,2-Bis (2-aminophenoxy) ethane-N,N,N′,N′-tetraacetic acid tetrakis (acetoxymethyl ester), reference compound]
effect on quercetin-induced AMPK phosphorylation (AMPK; 25 μM BAPTA-AM for 30 min prior to 1 nM quercetin): did not affect

O=C(O)c1ccc2c3c1cccc3c(=O)n1c3ccccc3nc21 [STO-609, reference compound]
effect on quercetin-induced AMPK phosphorylation (AMPK; 10 μM STO-609 for 30 min prior to 1 nM quercetin): abolished

leptin: positive control for JAK2/STAT signalling pathway
compound-induced GLUT4 translocation after siRNA for JAK2 (GLUT4; siJAK2 50 nM 48 h, 10 nM leptin): abolished

Reference: publication PMC6389993, “Quercetin and its metabolite isorhamnetin promote glucose uptake through different signalling pathways in myotubes” (Scientific Reports, 2019)
